Data: patent US20060069132A1, “Azolecarboxamide herbicides” (priority 2004, published 2006)

Experiments:
wheat = test: Test B postemergence herbicide test; assay type: in vivo, Triticum aestivum; parameters: key to Wheat plant response rating: 0 = no effect, 100 = complete control; details: postemergence
Method in brief: (§1)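 Treated at 2-leaf (paddy) or 1–4-leaf, 2–18 cm (postemergence); greenhouse 13–15 d; visual score vs control, 0 none to 100 complete control; dash = not tested.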

[1] = test system: small flower umbrella sedge; test: Test B flooded paddy test; assay type: in vivo, Cyperus difformis; details: 1000 g ai/ha, scale 0 to 100 (0 no effect, 100 complete control)
Method in brief: as §1

large crabgrass = test: Test B pre-/postemergence herbicide test; assay type: in vivo, Digitaria sanguinalis; details: for Crabgrass, Large plant response rating: postemergence
Method in brief: (§2)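 Test chemicals in a non-phytotoxic solvent mixture with surfactant were applied preemergence to seeded species and postemergence to plants 2-18 cm tall (1- to 4-leaf stage); rice and barnyardgrass were also tested in a flooded paddy at the 2-leaf stage. Visual rating versus controls after 13-15 days in greenhouse, scale 0 (no effect) to 100 (complete control).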

pigweed = test: Test B pre-/postemergence herbicide test; assay type: in vivo, Amaranthus retroflexus; details: for Pigweed plant response rating: postemergence
Method in brief: as §2

velvetleaf = test: Test B pre-/postemergence herbicide test; assay type: in vivo, Abutilon theophrasti; details: for Velvetleaf plant response rating: postemergence
Method in brief: as §2

barnyardgrass [2] = test: Test B pre-/postemergence herbicide test; assay type: in vivo, Echinochloa crus-galli; details: for Barnyardgrass plant response rating: postemergence, scale 0 (no effect) to 100 (complete control)
Method in brief: (§3)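 Herbicidal effect was judged by eye on a 0–100 scale after plants stood 13 to 15 days in the greenhouse following pre- or postemergence treatment with surfactant-containing formulations.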

lambsquarters = test: Test B pre-/postemergence herbicide test; assay type: in vivo, Chenopodium album; details: for Lambsquarters plant response rating: postemergence
Method in brief: as §2

Surinam grass = test: Test B pre-/postemergence herbicide test; assay type: in vivo, Urochloa decumbens; details: for Surinam Grass plant response rating: postemergence
Method in brief: as §2

blackgrass = test: Test B postemergence herbicide test; assay type: in vivo, Alopecurus myosuroides; details: postemergence, visual rating, scale 0 (no effect) to 100 (complete control)
Method in brief: as §1

corn = test: Test B pre-/postemergence herbicide test; assay type: in vivo, Zea mays; details: for Corn plant response rating: postemergence
Method in brief: as §2

giant foxtail = test: Test B pre-/postemergence herbicide test; assay type: in vivo, Setaria faberi; details: for Foxtail, Giant plant response rating: postemergence
Method in brief: as §2

morningglory = test: Test B pre-/postemergence herbicide test; assay type: in vivo, Ipomoea coccinea; details: for Morningglory plant response rating: postemergence
Method in brief: as §3

barnyardgrass [3] = test: Test C flooded paddy test; assay type: in vivo, Echinochloa crus-galli
Method in brief: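 After a postemergence application at 1 to 4 leaves (plants 2–18 cm high), or at 2 leaves for barnyardgrass in flooded paddy, plants stayed in the greenhouse for 12 to 14 days. Damage was then judged visually relative to control plants, with 100 indicating complete control.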

cocklebur = test: Test B pre-/postemergence herbicide test; assay type: in vivo, Xanthium strumarium; details: for Cocklebur plant response rating: postemergence, scale 0 (no effect) to 100 (complete control)
Method in brief: as §3

[4] = test system: smallflower umbrella sedge; test: Test C flooded paddy test; assay type: in vivo, Cyperus difformis
ducksalad [5] = test: Test B flooded paddy test; assay type: in vivo, Heteranthera limosa; details: 1000 g ai/ha, scale 0 to 100 (0 no effect, 100 complete control)
Method in brief: as §1

rice [6] = test: Test B pre-/postemergence herbicide test; assay type: in vivo, Oryza sativa; details: 0 = no effect, 100 = complete control, preemergence
Method in brief: as §2

ducksalad [7] = test: Test C flooded paddy test; assay type: in vivo, Heteranthera limosa
barnyardgrass [8] = test: Test B flooded paddy test; assay type: in vivo, Echinochloa crus-galli; details: 1000 g ai/ha, scale 0 to 100 (0 no effect, 100 complete control)
Method in brief: as §1

rice [9] = test: Test B flooded paddy test; assay type: in vivo, Oryza sativa; details: 1000 g ai/ha, scale 0 to 100 (0 no effect, 100 complete control)
Method in brief: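 Paddy species grown to the 2-leaf stage under flooding; blackgrass sprayed postemergence at 2–18 cm (1- to 4-leaf stage). Plants kept in a greenhouse for 13 to 15 days, then visually rated against controls on 0 (no effect) to 100 (complete control).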

rice [10] = test: Test C flooded paddy test; assay type: in vivo, Oryza sativa
Method in brief: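 Plants were grown to the 1- to 4-leaf stage (2–18 cm) and then treated postemergence, or grown to the 2-leaf stage for the flooded paddy test. They were held in a greenhouse for 12 to 14 days and then scored by eye against controls, where 0 is no effect and 100 is complete control.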

wild oat = test: Test B postemergence herbicide test; assay type: in vivo, Avena fatua; details: postemergence
Method in brief: as §1

[11] = 125 g ai/ha, visual rating, scale 0 (no effect) to 100 (complete control)
[12] = 500 g ai/ha, scale 0 to 100, 0 is no effect, 100 is complete control
[13] = 125 g ai/ha, 0 = no effect, 100 = complete control, preemergence
[14] = 500 g ai/ha, visual rating, 0 = no effect, 100 = complete control, preemergence
[15] = 125 g ai/ha, scale 0 to 100 (0 no effect, 100 complete control)
[16] = 250 g ai/ha, scale of 0 to 100, 0 is no effect, 100 is complete control
[17] = 500 g ai/ha, visual rating after 12 to 14 days, scale 0 to 100 (0 no effect, 100 complete control)

CCn1nc(C(C)(C)C)cc1C(=O)Nc1cncc(C(=O)N(C)C)c1 [Compound 258]
10: Crabgrass, Large plant response rating (0 to 100 scale) (large crabgrass; [13]) | Surinam Grass plant response rating (Surinam grass; [12]) | Blackgrass plant response rating (blackgrass; 125 g ai/ha) | Blackgrass plant response rating (blackgrass; 500 g ai/ha) | Corn plant response rating (corn; [12]) | Plant response rating, Morningglory (morningglory; [14]) | Morningglory plant response rating (morningglory; [12])
100: Plant response rating, Pigweed (pigweed; [14]) | Plant response rating, Lambsquarters (lambsquarters; [14])
30: Lambsquarters plant response rating (lambsquarters; [11]) | Plant response rating, Surinam Grass (Surinam grass; [14]) | Cocklebur plant response rating (cocklebur; 500 g ai/ha, visual rating) | Oat, Wild plant response rating (wild oat; [12])
50: Plant response rating, Crabgrass, Large (large crabgrass; [14]) | Pigweed plant response rating (pigweed; [11])
5: Rice plant response rating (rice [10]; [16])
45: Plant response rating, Barnyardgrass (barnyardgrass [3]; [17]) | Ducksalad plant response rating (ducksalad [7]; [15])
70: Sedge, Umbrella plant response rating [1] | Barnyardgrass plant response rating (0 to 100 scale) (barnyardgrass [2]; [13]) | Lambsquarters plant response rating (lambsquarters; [12]) | Sedge, Umbrella plant response rating [4, 16] | Ducksalad plant response rating (ducksalad [7]; [16]) | Barnyardgrass plant response rating (barnyardgrass [8]) | Plant response rating, Rice (rice [10]; [17])
90: Plant response rating, Barnyardgrass (barnyardgrass [2]; [14]) | Ducksalad plant response rating (ducksalad [5]) | Plant response rating, Rice (rice [6]; 500 g ai/ha, visual rating) | Plant response rating, Ducksalad (ducksalad [7]; [17])
80: Plant response rating, Sedge, Umbrella [4, 17] | Rice plant response rating (rice [9])
15: Barnyardgrass plant response rating (barnyardgrass [3]; [16]) | Ducksalad plant response rating (ducksalad [7]; 62 g ai/ha, scale 0 to 100)
60: Pigweed plant response rating (pigweed; [12]) | Plant response rating, Velvetleaf (velvetleaf; [14])
0: Crabgrass, Large plant response rating (large crabgrass; [11]) | Crabgrass, Large plant response rating (large crabgrass; [12]) | Pigweed plant response rating (0 to 100 scale) (pigweed; [13]) | Velvetleaf plant response rating (0 to 100 scale) (velvetleaf; [13]) | Velvetleaf plant response rating (velvetleaf; [11]) | Velvetleaf plant response rating (velvetleaf; [12]) | Barnyardgrass plant response rating (barnyardgrass [2]; 125 g ai/ha, visual rating) | Barnyardgrass plant response rating (barnyardgrass [2]; 500 g ai/ha, visual rating) | Surinam Grass plant response rating (0 to 100 scale) (Surinam grass; [13]) | Surinam Grass plant response rating (Surinam grass; [11]) | Corn plant response rating (0 to 100 scale) (corn; [13]) | Plant response rating, Corn (corn; [14]) | Corn plant response rating (corn; [11]) | Foxtail, Giant plant response rating (0 to 100 scale) (giant foxtail; [13]) | Foxtail, Giant plant response rating (giant foxtail; [11]) | Foxtail, Giant plant response rating (giant foxtail; [12]) | Morningglory plant response rating (0 to 100 scale) (morningglory; [13]) | Morningglory plant response rating (morningglory; [11]) | Barnyardgrass plant response rating (barnyardgrass [3]; 62 g ai/ha, scale 0 to 100 (0 no effect, 100 complete control)) | Barnyardgrass plant response rating (barnyardgrass [3]; [15]) | Cocklebur plant response rating (0 to 100 scale) (cocklebur; [13]) | Plant response rating, Cocklebur (cocklebur; [14]) | Sedge, Umbrella plant response rating ([4]; 62 g ai/ha, scale 0 to 100) | Rice plant response rating (rice [10]; 62 g ai/ha, scale 0 to 100) | Rice plant response rating (rice [10]; [15])
20: Wheat plant response rating (wheat; [11]) | Wheat plant response rating (wheat; [12]) | Plant response rating, Foxtail, Giant (giant foxtail; [14]) | Cocklebur plant response rating (cocklebur; 125 g ai/ha, visual rating) | Sedge, Umbrella plant response rating [4, 15] | Rice plant response rating (0 to 100 scale) (rice [6]; 125 g ai/ha) | Oat, Wild plant response rating (wild oat; [11])
